Data reported in publication PMC9923724, “Half sandwich-type osmium, ruthenium, iridium and rhodium complexes with bidentate glycosyl heterocyclic ligands induce cytostasis in platinum-resistant ovarian cancer cells and bacteriostasis in Gram-positive multiresistant bacteria” (Frontiers in Chemistry, 2023).
Several values for one entry are separate records, joined by “and”; a condition that tells them apart may be missing. Identical values can stand only once.

Columns and labels:
[1] = system: A2780 ovarian cancer cells; test: MTT reduction assay (rapid toxicity, 4 h) on A2780 cells; type: cell-based; conditions: 4 h treatment
Description: (§1) First, we assessed a set of osmium complexes (similar to Ia [[Kacsir et al., 2022]) in Figure 1] and their sugar-derived ligands, in which the benzoyl protective groups on the carbohydrate moiety were replaced by aliphatic acyl groups of different chain length (straight chain C3-C7–CO). Osmium was selected as a central ion, since osmium complexes had the best biological activity in our previous studies ([Balázs et al., 2022]; [Kacsir et al., 2022]). These compounds were tested on A2780 ovarian cancer cells for toxicity and cytostasis. The therapy of ovarian cancer is centered around platinum compounds ([Brown et al., 2019]; [Sipos et al., 2021]), therefore, it was logical to use a cellular model of ovarian cancer for the initial testing of the compounds. Toxicity was assessed using the MTT assay that measures the activity of mitochondrial complex I. We chose 4 h long treatment as in an MTT assay this time point is suitable to detect rapid, direct toxicity. Cytostasis was assessed after 48 h of treatment using the SRB assay that assesses protein content that corresponds to cell count. The characteristics of the compounds are detailed in Table 2.
(§2) 3 × 10^3 A2780 cells, were plated to 96 well plates. Cells were treated with the compounds in the concentrations indicated for either 4 h for an MTT assay or for 48 h for an SRB assay. Data is represented as average ± SD, from three biological replicates; individual assays were performed in duplicates. Values were normalized for vehicle treated cells, absorbance for vehicle treated cells equals to 1. […] Except for the Os-6 complex, Two-way ANOVA test was performed and all values were compared with each other (Tukey’s post hoc test). […] Non-linear regression was performed on the data.
(§3) 3 × 10^3 A2780 cells, 2 × 10^3 ID8 cells and 4 × 10^3 primary fibroblasts were plated to 96 well plates. Cells were treated with the compounds in the concentrations indicated for either 4 h for an MTT assay or for 48 h for an SRB assay. Data is represented as average ± SD, from three biological replicates; individual assays were performed in duplicates. Values were normalized for vehicle treated cells, absorbance for vehicle treated cells equals to 1. Statistical significance was assessed using two-way ANOVA test comparing the free ligand and each complex as a complex-ligand pair. Before the test normality was assessed using the D’Agostino-Pearson test. The ID8 SRB Ir-7+L-7 dataset had lognormal distribution. […] All other datasets had normal distribution. For better visibility the p values are presented in an excel sheet at https://figshare.com/s/2c942a812caea8869a67. Non-linear regression was performed on the A2780 SRB and the ID8 SRB datasets.
MTT reduction assay measures the activity of mitochondrial complex I and can be used to detect toxicity ([Virág et al., 1998]; [Henslee et al., 2016]). The assay was performed similar to ([Bakondi et al., 2003]). Briefly, cells were plated in 96 well plates the day before the assay. Cells were treated with the compounds for 4 h, then MTT was added in 0.5 mg/ml final concentration and cells were incubated at 37°C in a cell incubator. Culture media was removed and the reduced MTT dye was dissolved in dimethyl-sulfoxide (DMSO) and plates were measured in a plate photometer (Thermo Scientific Multiscan GO spectrophotometer, Waltham, MA, United States) at 540 nm. On each plate wells were designed to contain untreated/vehicle-treated cells. In calculations the readings for these wells was considered as 1 and all readings were expressed relative to these values.

[2] = system: A2780 ovarian cancer cells; test: SRB assay (cytostasis, 48 h) on A2780 cells; type: cell-based; conditions: 48 h treatment
Description: as §1, §2, §3
The assay was performed similar to ([Kovács et al., 2019]). Cells were seeded in 96 well plates the day before the assay. Cells were treated with the compounds for 48 h. Cells were fixed with 10% trichloroacetic acid (TCA). Fixed cells were washed in distilled water 3 times followed by staining with SRB (0.4 m/V% dissolved in 1% acetic acid) for 10 min. Stained cells were washed in 1% acetic acid 5 times; acetic acid was removed and cells were left to dry. Protein-bound SRB was released by adding 100 µl 10 mM Tris base. Plates were measured in a plate photometer (Thermo Scientific Multiscan GO spectrophotometer, Waltham, MA, United States) at 540 nm. On each plate wells were designed to contain vehicle-treated cells. In calculations the readings for these wells was considered as 1 and all readings were expressed relative to these values.
Statistical analysis was performed using 8.0.1 version of Graphpad Prism. Values were tested for normal distribution using the D’Agostino and Pearson normality test. When necessary, values were log normalized or were normalized using the Box-Cox normalization method ([Box and Cox, 1964]) as indicated in the figure captions. […]

[3] = Determination of the distribution coefficients (logD); type: physicochemical; conditions: distribution coefficient
[4] = system: Enterococcus faecalis (ATCC29212); test: Broth microdilution MIC, Enterococcus faecalis reference strain; type: cell-based; conditions: for MIC, Reference E. faecalis: Enterococcus faecalis ATCC29212, 24 h
Description: (§4) The MIC values of the complexes were determined against the reference strains of S. aureus (ATCC29213) and E. faecalis. (ATCC29212) and against clinical VRE and MRSA isolates by microdilution assays (repeated at least twice in duplicates) as described in Materials and Methods. The numbers indicate how many isolates were susceptible to the compound out of those tested; i.e., 1/6 stands for 1 isolate was susceptible out of 6 tested. […] Cells were harvested and lysed. Cellular proteins was separated on a 10% SDS-PAGE gel and were blotted. Blots were probed with 4HNE antibody (top blot), the lower blot was stained with amido black. Arrows point at band of interest. Experiments were repeated three times and a representative blot is shown. On the blots brightness and contrast were adjusted. […] Each was matched to a substance and strain by its position over the x-axis categories. / Ir-7: ND and 0/3 (left plot) and ND and 0/6 (right plot) were matched to E. faecalis/VRE and S. aureus/MRSA by position only.
(§5) We used the reference strains of Staphylococcus aureus (ATCC29213), and Enterococcus faecalis (ATCC29212) that were purchased from ATCC (Manassas, VA, United States).
(§6) Microdilution experiments were performed according to the standards of EUCAST ([EUCAST, 2021]). […] The inoculated plates were incubated for 24 h at 37°C then were assessed visually. […] All experiments were performed at least twice in duplicates.

[5] = system: vancomycin-resistant Enterococcus (VRE) clinical isolates; test: Broth microdilution MIC, clinical VRE isolates; type: cell-based, E. faecium; conditions: for VRE isolates susceptible out of those tested: 3 isolates tested, susceptible = MIC up to 40 µM; for MIC, VRE 25 051: clinical isolate 25 051, nephrostoma; for MIC, VRE 25 051 / MIC, VRE 25 498 / MIC, VRE 27 085: 2018; for MIC, VRE 25 498: clinical isolate 25 498, rectal swab; for MIC, VRE 27 085: clinical isolate 27 085, wound
Description: as §4
(§7) We used a set of clinical isloates of S. aureus and E. faecium that were collected at the Medical Center of the University of Debrecen (Hungary) between 01. 01. 2018.—31. 12. 2020. The clinical isolates were identified using a Microflex MALDI-TOF mass spectrometer (Bruker, Billerica, MA, United States). Antibiotic susceptibility of the isolates was tested following the European Committee on Antimicrobial Susceptibility Testing ([EUCAST, 2021]) guidelines valid at the time of collection.
as §6

[6] = system: Staphylococcus aureus (ATCC29213); test: Broth microdilution MIC, Staphylococcus aureus reference strain; type: cell-based; conditions: for MIC, Reference S. aureus: Staphylococcus aureus ATCC29213, 24 h; for MIC (μM) (S. aureus), Figure 11: reference strain ATCC29213
Description: as §4, §5, §6

[7] = system: methicillin-resistant Staphylococcus aureus (MRSA) clinical isolates; test: Broth microdilution MIC, clinical MRSA isolates; type: cell-based; conditions: for MRSA isolates susceptible out of those tested: 6 isolates tested, susceptible = MIC up to 40 µM; for MIC, MRSA 20 426: clinical isolate 20 426, blood, 2020; for MIC, MRSA 24 035: clinical isolate 24 035, wound; for MIC, MRSA 24 035 / MIC, MRSA 24 268 / MIC, MRSA 24 272 / MIC, MRSA 24 328 / MIC, MRSA 24 408: 2018; for MIC, MRSA 24 268: clinical isolate 24 268, throat; for MIC, MRSA 24 272: clinical isolate 24 272, throat; for MIC, MRSA 24 328: clinical isolate 24 328, throat; for MIC, MRSA 24 408: clinical isolate 24 408, bronchial
Description: as §4, §7, §6

| Compound | A2780 MTT Max. (maximal inhibition) [1] | A2780 SRB Max. (maximal inhibition) [2] | IC50 [2] | LogD [3] | MIC, Reference E. faecalis [4] | VRE isolates susceptible out of those tested [5] | MIC, VRE 25 051 [5] | MIC, VRE 25 498 [5] | MIC, VRE 27 085 [5] | MIC, Reference S. aureus [6] | MRSA isolates susceptible out of those tested [7] | MIC, MRSA 20 426 [7] | MIC, MRSA 24 035 [7] | MIC, MRSA 24 268 [7] | MIC, MRSA 24 272 [7] | MIC, MRSA 24 328 [7] | MIC, MRSA 24 408 [7] | also measured |
| --- | --- | --- | --- | --- | --- | --- | --- | --- | --- | --- | --- | --- | --- | --- | --- | --- | --- | --- |
| CCCCCC(=O)OCC1OC(n2cc(-c3ccccn3)nn2)C(OC(=O)CCCCC)C(OC(=O)CCCCC)C1OC(=O)CCCCC.Cc1ccc(C(C)C)cc1.F[P-](F)(F)(F)(F)F.[Cl][Os+] (mixture of isomers) [Os-4] | 84.4% | >90% | 3.87 µM | 2.7 | 40 µM | 3/3 | 40 µM | 40 µM | 40 µM | 40< µM | 1/6 | 40< µM | 40< µM | 40< µM | 40< µM | 40< µM | 40 µM | MIC (μM) (S. aureus), Figure 11 [6]: ND (ND—not detected, MIC>40 µM) |
| CCCCC(=O)OCC1OC(n2cc(-c3ccccn3)nn2)C(OC(=O)CCCC)C(OC(=O)CCCC)C1OC(=O)CCCC.Cc1ccc(C(C)C)cc1.F[P-](F)(F)(F)(F)F.[Cl][Os+] (mixture of isomers) [Os-3] | 84.4% | >90% | 2.1 µM | 2.6 | 2.5—10 µM and 5 µM | 3/3 | 5 µM | 5 µM | 5 µM | 2.5—10 µM and 2.5 µM | 6/6 | 5 µM | 2.5 µM | 2.5 µM | 5 µM | 2.5 µM | 5 µM |  |
| CCCC(=O)OC[C@H]1O[C@@H](n2cc(-c3ccccn3)nn2)[C@H](OC(=O)CCC)[C@@H](OC(=O)CCC)[C@@H]1OC(=O)CCC [L-2] |  | 21.2% |  |  |  |  |  |  |  |  |  |  |  |  |  |  |  |  |
| CCCCC(=O)OC[C@H]1O[C@@H](n2cc(-c3ccccn3)nn2)[C@H](OC(=O)CCCC)[C@@H](OC(=O)CCCC)[C@@H]1OC(=O)CCCC [L-3] |  | 32.0% |  |  |  |  |  |  |  |  |  |  |  |  |  |  |  |  |
| CCCCCC(=O)OC[C@H]1O[C@@H](n2cc(-c3ccccn3)nn2)[C@H](OC(=O)CCCCC)[C@@H](OC(=O)CCCCC)[C@@H]1OC(=O)CCCCC [L-4] |  | 26.9% |  |  |  |  |  |  |  |  |  |  |  |  |  |  |  |  |
| CCCCCCC(=O)OCC1OC(n2cc(-c3ccccn3)nn2)C(OC(=O)CCCCCC)C(OC(=O)CCCCCC)C1OC(=O)CCCCCC.Cc1ccc(C(C)C)cc1.F[P-](F)(F)(F)(F)F.[Cl][Os+] (mixture of isomers) [Os-5] | 83.4% | >90% | 15.9 µM | 2.7 | 40< µM | 0/3 | 40< µM | 40< µM | 40< µM | 40< µM | 0/6 | 40< µM | 40< µM | 40< µM | 40< µM | 40< µM | 40< µM | MIC (μM) (E. faecalis), Figure 11 ([4]; reference strain ATCC29212, printed in the picture): ND (ND—not detected, MIC>40 µM); MIC against clinical VRE isolates (as a group) ([5]; 3 clinical VRE isolates): > 40 µM; MIC (μM) (S. aureus), Figure 11 [6]: ND (ND—not detected, MIC>40 µM); MIC against clinical MRSA isolates (as a group) ([7]; 6 clinical MRSA isolates): > 40 µM |
| CCCC(=O)OCC1OC(n2cc(-c3ccccn3)nn2)C(OC(=O)CCC)C(OC(=O)CCC)C1OC(=O)CCC.Cc1ccc(C(C)C)cc1.F[P-](F)(F)(F)(F)F.[Cl][Os+] (mixture of isomers) [Os-2] | 88% | >90% | 6.23 µM | 2.5 |  | 3/3 | 10 µM | 10 µM | 10 µM | 2.5—10 µM and 2.5 µM | 6/6 | 2.5 µM | 2.5 µM | 5 µM | 5 µM | 2.5 µM | 5 µM |  |
| O=C(OC[C@H]1O[C@@H](n2cc(-c3ccc4ccccc4n3)nn2)[C@H](OC(=O)c2ccccc2)[C@@H](OC(=O)c2ccccc2)[C@@H]1OC(=O)c1ccccc1)c1ccccc1 [L-7, 1-(2’,3’,4’,6’-tetra-O-benzoyl-β-D-glucopyranosyl)-4-(quinolin-2-yl)-1,2,3,-triazole] |  | 16.9% |  |  |  |  |  |  |  |  |  |  |  |  |  |  |  |  |
| CCCCCCC(=O)OC[C@H]1O[C@@H](n2cc(-c3ccccn3)nn2)[C@H](OC(=O)CCCCCC)[C@@H](OC(=O)CCCCCC)[C@@H]1OC(=O)CCCCCC [L-5] |  | 28.5% |  |  |  |  |  |  |  |  |  |  |  |  |  |  |  |  |
